From article PMC12250302, “Synthesis, Antimicrobial Activities, and Model of Action of Novel Tetralone Derivatives Containing Aminoguanidinium Moiety” (International Journal of Molecular Sciences, 2025)
In brackets after ≈: the same amount, converted by molar mass. Like-named read-outs stand apart in the source and are kept apart here. One block for each molecule: values may come before it.

How the values were obtained:
Test in all cases: MIC and MBC testing, broth microdilution
[1] = test system: A. baumannii ATCC 19606; assay type: cell-based, Acinetobacter baumannii
From the text: (§1) The minimum inhibitory concentrations (MICs) and minimum bactericidal concentrations (MBCs) of the synthesized compounds effective against ESKAPE strains, S. aureus clinical isolates, and MRSA were investigated by the broth dilution method. Levofloxacin is a broad-spectrum antibacterial agent that is widely used in the treatment of ESKAPE infections. Therefore, levofloxacin was selected as the positive control for the preliminary activity screening. DMSO (0.1%) was selected as the negative control.
(§2) The minimum inhibitory concentration (MIC) of all synthesized compounds was tested by the broth microdilution method. In brief, compounds dissolved in DMSO were diluted twice continuously in a 96-well plate with MH broth. The ESKAPE pathogens (E. coli ATCC 25922, S. aureus ATCC 29213, K. pneumoniae ATCC 700603, A. baumannii ATCC 19606, P. aeruginosa ATCC 27853, and E. faecium ATCC 35667), clinical S. aureus isolates (LMY45, LMY46, LMY47, and LMY48) and methicillin-resistant Staphylococcus aureus (MRSA-1 and MRSA-2) were cultured in MH broth to logarithmic growth phase and then diluted to 1 × 10^6 CFU/mL in MH broth. Subsequently, the diluted bacterial solution was mixed with the diluted compound solution in a 96-well plate and incubated at 37 °C for a duration of 18 h. The MIC of the compounds was recorded as the lowest concentration at which no visible growth was observed. […] Each concentration was replicated thrice.

[2] = test system: E. coli ATCC 25922; assay type: cell-based, Escherichia coli
From the text: as §1, §2

[3] = test system: E. faecium ATCC 35667; assay type: cell-based, Enterococcus faecium; conditions: E. faecium ATCC 35667; for MIC: 18 h
From the text: as §1, §2

[4] = test system: P. aeruginosa ATCC 27853; assay type: cell-based, Pseudomonas aeruginosa
From the text: as §1, §2

[5] = test system: S. aureus ATCC 29213; assay type: cell-based, Staphylococcus aureus; conditions: S. aureus ATCC 29213; for MIC: 18 h
From the text: as §1, §2

[6] = test system: K. pneumoniae ATCC 700603; assay type: cell-based, Klebsiella pneumoniae; conditions: Klebsiella pneumoniae; for MIC: ATCC700603, 18 h, read-out: MIC; for MBC: ATCC700603, read-out: MBC
From the text: as §1, §2

[7] = test system: MRSA-1; assay type: cell-based, Staphylococcus aureus; conditions: MRSA-1; for MIC: 18 h
Description: (§3) Furthermore, the MBC values of the compounds were detected.
as §2, with “h.” for “h. The MIC of the compounds was recorded as the lowest concentration at which no visible growth was observed.”

[8] = test system: MRSA-2; assay type: cell-based, Staphylococcus aureus; conditions: MRSA-2; for MIC: 18 h
Description: as §3
as §2, with “h.” for “h. The MIC of the compounds was recorded as the lowest concentration at which no visible growth was observed.”

[9] = test system: clinical S. aureus isolate LMY47; assay type: cell-based, Staphylococcus aureus; conditions: LMY47; for MIC: 18 h
Description: as §3
as §2, with “h.” for “h. The MIC of the compounds was recorded as the lowest concentration at which no visible growth was observed.”

[10] = test system: clinical S. aureus isolate LMY46; assay type: cell-based, Staphylococcus aureus; conditions: LMY46; for MIC: 18 h
Description: as §3
as §2, with “h.” for “h. The MIC of the compounds was recorded as the lowest concentration at which no visible growth was observed.”

[11] = test system: clinical S. aureus isolate LMY45; assay type: cell-based, Staphylococcus aureus; conditions: LMY45; for MIC: 18 h
Description: as §3
as §2, with “h.” for “h. The MIC of the compounds was recorded as the lowest concentration at which no visible growth was observed.”

[12] = test system: clinical S. aureus isolate LMY48; assay type: cell-based, Staphylococcus aureus; conditions: LMY48; for MIC: 18 h
Description: as §3
as §2, with “h.” for “h. The MIC of the compounds was recorded as the lowest concentration at which no visible growth was observed.”

[13] = Acinetobacter baumannii, ATCC19606, 18 h, read-out: MIC
[14] = Acinetobacter baumannii, ATCC19606, read-out: MBC
[15] = Escherichia coli, ATCC25922, 18 h, read-out: MIC
[16] = Escherichia coli, ATCC25922, read-out: MBC
[17] = Enterococcus faecium, ATCC35667, read-out: MIC
[18] = Enterococcus faecium, ATCC35667, read-out: MBC
[19] = Pseudomonas aeruginosa, ATCC27853, 18 h, read-out: MIC
[20] = Pseudomonas aeruginosa, ATCC27853, read-out: MBC
[21] = Staphylococcus aureus, ATCC29213, read-out: MIC
[22] = Staphylococcus aureus, ATCC29213, read-out: MBC
[23] = Staphylococcus aureus, read-out: MIC
[24] = Staphylococcus aureus, read-out: MBC

Molecule: [H]/N=C(\N)NN=C1CCCc2cc(OCc3cccc(F)c3)ccc21 [Compound 1B, (E)-2-(6-((3-fluorobenzyl)oxy)-3,4-dihydronaphthalen-1(2H)-ylidene)hydrazine-1-carboximidamide]
- MIC [1, 13]: 8 µg/mL (≈ 24.5 µM)
- MBC [1, 14]: 16 µg/mL (≈ 49 µM)
- MIC [2, 15]: 8 µg/mL (≈ 24.5 µM)
- MBC [2, 16]: 8 µg/mL (≈ 24.5 µM)
- MIC [3, 17]: 4 µg/mL (≈ 12.3 µM)
- MBC [3, 18]: 16 µg/mL (≈ 49 µM)
- MIC [4, 19]: 32 µg/mL (≈ 98 µM)
- MBC [4, 20]: 32 µg/mL (≈ 98 µM)
- MIC [5, 21]: 4 µg/mL (≈ 12.3 µM)
- MBC [5, 22]: 16 µg/mL (≈ 49 µM)
- MIC [6]: 16 µg/mL (≈ 49 µM)
- MBC [6]: 16 µg/mL (≈ 49 µM)
- MIC [7, 23]: 2 µg/mL (≈ 6.13 µM)
- MBC [7, 24]: 8 µg/mL (≈ 24.5 µM)
- MIC [8, 23]: 2 µg/mL (≈ 6.13 µM)
- MBC [8, 24]: 8 µg/mL (≈ 24.5 µM)
- MIC [9, 23]: 2 µg/mL (≈ 6.13 µM)
- MBC [9, 24]: 8 µg/mL (≈ 24.5 µM)
- MIC [10, 23]: 2 µg/mL (≈ 6.13 µM)
- MBC [10, 24]: 16 µg/mL (≈ 49 µM)
- MIC [11, 23]: 2 µg/mL (≈ 6.13 µM)
- MBC [11, 24]: 4 µg/mL (≈ 12.3 µM)
- MIC [12, 23]: 4 µg/mL (≈ 12.3 µM)
- MBC [12, 24]: 4 µg/mL (≈ 12.3 µM)

Molecule: (E)-2-(6-(4-isopropylphenoxy)-3,4-dihydronaphthalen-1(2H)-ylidene)hydrazine-1-carboximidamide [Compound 1X]
- MBC [1]: 8 µg/mL
- MIC ([1]; 18 h): 4 µg/mL
- MBC [2]: 8 µg/mL
- MIC ([2]; 18 h): 4 µg/mL
- MBC [3]: 4 µg/mL
- MIC [3]: 2 µg/mL
- MBC [4]: > 32 µg/mL
- MIC ([4]; 18 h): 32 µg/mL
- MBC [5]: 4 µg/mL
- MIC [5]: 2 µg/mL
- MBC [7]: 8 µg/mL
- MIC [7]: 4 µg/mL
- MBC [8]: 4 µg/mL
- MIC [8]: 1 µg/mL
- MBC [9]: 8 µg/mL
- MIC [9]: 2 µg/mL
- MBC [10]: 2 µg/mL
- MIC [10]: 2 µg/mL
- MBC [11]: 4 µg/mL
- MIC [11]: 2 µg/mL
- MBC [12]: 8 µg/mL
- MIC [12]: 2 µg/mL

The next lines start with results.

- MIC [1, 13]: 8 µg/mL (≈ 23.2 µM)
- MIC [2, 15]: 4 µg/mL (≈ 11.6 µM)
- MIC [3, 17]: 4 µg/mL (≈ 11.6 µM)
- MIC [4, 19]: 32 µg/mL (≈ 92.9 µM)
- MIC [5, 21]: 2 µg/mL (≈ 5.81 µM)
- MIC [6]: 16 µg/mL (≈ 46.5 µM)
- MIC [7, 23]: 2 µg/mL (≈ 5.81 µM)
- MIC [8, 23]: 2 µg/mL (≈ 5.81 µM)
- MIC [9, 23]: 2 µg/mL (≈ 5.81 µM)
- MIC [10, 23]: 2 µg/mL (≈ 5.81 µM)
- MIC [11, 23]: 2 µg/mL (≈ 5.81 µM)
- MIC [12, 23]: 2 µg/mL (≈ 5.81 µM)
Molecule: [H]/N=C(\N)NN=C1CCCc2cc(OCc3ccc(F)c(F)c3)ccc21 [Compound 1H, (E)-2-(6-((3,4-difluorobenzyl)oxy)-3,4-dihydronaphthalen-1(2H)-ylidene)hydrazine-1-carboximidamide]
- MBC [1, 14]: 8 µg/mL (≈ 23.2 µM)
- MBC [2, 16]: 16 µg/mL (≈ 46.5 µM)
- MBC [3, 18]: 16 µg/mL (≈ 46.5 µM)
- MBC [4, 20]: 32 µg/mL (≈ 92.9 µM)
- MBC [5, 22]: 8 µg/mL (≈ 23.2 µM)
- MBC [6]: 32 µg/mL (≈ 92.9 µM)
- MBC [7, 24]: 32 µg/mL (≈ 92.9 µM)
- MBC [8, 24]: 8 µg/mL (≈ 23.2 µM)
- MBC [9, 24]: 8 µg/mL (≈ 23.2 µM)
- MBC [10, 24]: > 32 µg/mL
- MBC [11, 24]: 4 µg/mL (≈ 11.6 µM)
- MBC [12, 24]: 4 µg/mL (≈ 11.6 µM)

- MIC [1, 13]: 16 µg/mL (≈ 44.3 µM)
- MIC [2, 15]: 8 µg/mL (≈ 22.2 µM)
- MIC [3, 17]: 2 µg/mL (≈ 5.54 µM)
- MIC [4, 19]: > 32 µg/mL
- MIC [5, 21]: 2 µg/mL (≈ 5.54 µM)
- MIC [6]: > 32 µg/mL
- MIC [7, 23]: 1 µg/mL (≈ 2.77 µM)
- MIC [8, 23]: 2 µg/mL (≈ 5.54 µM)
- MIC [9, 23]: 1 µg/mL (≈ 2.77 µM)
- MIC [10, 23]: 1 µg/mL (≈ 2.77 µM)
- MIC [11, 23]: 1 µg/mL (≈ 2.77 µM)
- MIC [12, 23]: 4 µg/mL (≈ 11.1 µM)
Molecule: [H]/N=C(\N)NN=C1CCCc2cc(OCc3ccc(F)cc3Cl)ccc21 [Compound 1T, (E)-2-(6-((2-chloro-4-fluorobenzyl)oxy)-3,4-dihydronaphthalen-1(2H)-ylidene)hydrazine-1-carboximidamide]
- MBC [1, 14]: 32 µg/mL (≈ 88.7 µM)
- MBC [2, 16]: > 32 µg/mL
- MBC [3, 18]: 16 µg/mL (≈ 44.3 µM)
- MBC [5, 22]: 32 µg/mL (≈ 88.7 µM)
- MBC [7, 24]: 8 µg/mL (≈ 22.2 µM)
- MBC [8, 24]: 8 µg/mL (≈ 22.2 µM)
- MBC [9, 24]: 4 µg/mL (≈ 11.1 µM)
- MBC [10, 24]: 4 µg/mL (≈ 11.1 µM)
- MBC [11, 24]: 4 µg/mL (≈ 11.1 µM)
- MBC [12, 24]: 4 µg/mL (≈ 11.1 µM)

- MIC [1, 13]: ≤ 1 µg/mL
- MIC [2, 15]: ≤ 1 µg/mL
- MIC [3, 17]: ≤ 1 µg/mL
- MIC [4, 19]: ≤ 1 µg/mL
- MIC [5, 21]: ≤ 1 µg/mL
- MIC [6]: ≤ 1 µg/mL
Molecule: C[C@H]1COc2c(N3CCN(C)CC3)c(F)cc3c(=O)c(C(=O)O)cn1c23 [Levofloxacin, reference compound]
- MBC [1, 14]: 2 µg/mL (≈ 5.53 µM)
- MBC [2, 16]: ≤ 1 µg/mL
- MBC [3, 18]: 2 µg/mL (≈ 5.53 µM)
- MBC [4, 20]: 2 µg/mL (≈ 5.53 µM)
- MBC [5, 22]: ≤ 1 µg/mL
- MBC [6]: 4 µg/mL (≈ 11.1 µM)
